Data from publication PMC10004634 (PLOS ONE, 2023).
Read-outs that look alike come from different tables or passages of the source.

What was measured:
Experiment in all cases: biochemical
Set-up in all cases: KINOMEscan scanMAX competition binding, DNA-tagged kinases, qPCR read-out, percent control at 300 nM
BLK = BLK (Homo sapiens, UniProt P51451)
BRSK1 = target: T1, BRSK1 (Homo sapiens, UniProt Q8TDC3)
T1 sequence (Q8TDC3 1-778): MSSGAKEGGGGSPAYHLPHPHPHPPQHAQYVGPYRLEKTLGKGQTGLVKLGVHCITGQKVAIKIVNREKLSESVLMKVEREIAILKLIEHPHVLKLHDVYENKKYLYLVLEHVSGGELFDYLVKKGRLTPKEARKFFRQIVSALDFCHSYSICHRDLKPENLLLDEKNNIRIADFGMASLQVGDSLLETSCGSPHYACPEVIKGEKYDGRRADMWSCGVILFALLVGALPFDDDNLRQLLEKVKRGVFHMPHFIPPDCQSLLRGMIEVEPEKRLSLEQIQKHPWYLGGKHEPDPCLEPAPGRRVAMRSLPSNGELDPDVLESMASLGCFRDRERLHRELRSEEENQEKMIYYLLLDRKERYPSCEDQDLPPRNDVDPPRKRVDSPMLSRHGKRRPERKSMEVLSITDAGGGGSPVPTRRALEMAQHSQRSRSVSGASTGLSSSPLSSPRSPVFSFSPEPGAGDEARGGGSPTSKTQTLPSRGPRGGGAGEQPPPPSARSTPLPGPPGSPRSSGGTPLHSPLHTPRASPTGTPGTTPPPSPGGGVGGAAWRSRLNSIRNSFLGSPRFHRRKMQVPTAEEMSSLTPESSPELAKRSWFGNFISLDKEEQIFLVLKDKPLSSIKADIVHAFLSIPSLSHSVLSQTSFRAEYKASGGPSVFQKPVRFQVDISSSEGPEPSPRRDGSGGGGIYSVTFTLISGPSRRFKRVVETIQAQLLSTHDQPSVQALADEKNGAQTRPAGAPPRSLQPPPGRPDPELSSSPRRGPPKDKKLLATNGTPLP

EGFR(L858R) = EGFR(L858R) (Homo sapiens, UniProt P00533, L858R)
EPHA2 = EPHA2 (Homo sapiens, UniProt P29317)
[1] = target: T2, JAK1(JH1domain-catalytic) (Homo sapiens, UniProt P23458)
T2 construct: JH1domain-catalytic

LTK = LTK (Homo sapiens, UniProt P29376)
MAP3K1 = MAP3K1 (Homo sapiens, UniProt Q13233)
MLCK = target: T3, MLCK (Homo sapiens, UniProt Q32MK0)
T3 construct: gene MYLK3
T3 sequence (Q32MK0 1-819): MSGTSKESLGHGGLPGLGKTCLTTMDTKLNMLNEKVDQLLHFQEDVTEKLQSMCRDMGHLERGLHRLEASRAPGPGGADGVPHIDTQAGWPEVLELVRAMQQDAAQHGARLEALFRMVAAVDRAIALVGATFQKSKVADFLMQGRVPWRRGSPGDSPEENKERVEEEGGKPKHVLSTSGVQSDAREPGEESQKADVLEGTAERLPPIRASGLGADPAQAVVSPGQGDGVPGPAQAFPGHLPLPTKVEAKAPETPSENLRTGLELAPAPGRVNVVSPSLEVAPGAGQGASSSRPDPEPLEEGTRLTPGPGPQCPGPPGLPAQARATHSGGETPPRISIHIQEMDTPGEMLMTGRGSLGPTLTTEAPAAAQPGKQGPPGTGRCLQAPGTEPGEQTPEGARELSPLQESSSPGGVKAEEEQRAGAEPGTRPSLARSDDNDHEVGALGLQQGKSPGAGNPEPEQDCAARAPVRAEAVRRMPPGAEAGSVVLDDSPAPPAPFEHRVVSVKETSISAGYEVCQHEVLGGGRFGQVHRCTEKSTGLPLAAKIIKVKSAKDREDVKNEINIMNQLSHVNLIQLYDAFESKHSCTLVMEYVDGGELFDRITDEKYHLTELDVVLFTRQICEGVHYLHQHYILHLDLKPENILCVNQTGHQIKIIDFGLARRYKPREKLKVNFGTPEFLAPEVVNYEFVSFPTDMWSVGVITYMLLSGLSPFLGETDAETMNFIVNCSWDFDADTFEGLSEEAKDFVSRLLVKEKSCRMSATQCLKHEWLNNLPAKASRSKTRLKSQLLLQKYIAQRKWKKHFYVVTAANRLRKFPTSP

NEK4 = NEK4 (Homo sapiens, UniProt P51957)
PLK3 = PLK3 (Homo sapiens, UniProt Q9H4B4)
STK33 = STK33 (Homo sapiens, UniProt Q9BYT3)
TIE1 = TIE1 (Homo sapiens, UniProt P35590)
[2] = read-out: Percent control / Acalabrutinib
[3] = read-out: Percent control / Ibrutinib
[4] = read-out: Percent control / Tirabrutinib
[5] = read-out: Percent control / Zanubrutinib

Chain of EPHA2 (P29317 whole entry): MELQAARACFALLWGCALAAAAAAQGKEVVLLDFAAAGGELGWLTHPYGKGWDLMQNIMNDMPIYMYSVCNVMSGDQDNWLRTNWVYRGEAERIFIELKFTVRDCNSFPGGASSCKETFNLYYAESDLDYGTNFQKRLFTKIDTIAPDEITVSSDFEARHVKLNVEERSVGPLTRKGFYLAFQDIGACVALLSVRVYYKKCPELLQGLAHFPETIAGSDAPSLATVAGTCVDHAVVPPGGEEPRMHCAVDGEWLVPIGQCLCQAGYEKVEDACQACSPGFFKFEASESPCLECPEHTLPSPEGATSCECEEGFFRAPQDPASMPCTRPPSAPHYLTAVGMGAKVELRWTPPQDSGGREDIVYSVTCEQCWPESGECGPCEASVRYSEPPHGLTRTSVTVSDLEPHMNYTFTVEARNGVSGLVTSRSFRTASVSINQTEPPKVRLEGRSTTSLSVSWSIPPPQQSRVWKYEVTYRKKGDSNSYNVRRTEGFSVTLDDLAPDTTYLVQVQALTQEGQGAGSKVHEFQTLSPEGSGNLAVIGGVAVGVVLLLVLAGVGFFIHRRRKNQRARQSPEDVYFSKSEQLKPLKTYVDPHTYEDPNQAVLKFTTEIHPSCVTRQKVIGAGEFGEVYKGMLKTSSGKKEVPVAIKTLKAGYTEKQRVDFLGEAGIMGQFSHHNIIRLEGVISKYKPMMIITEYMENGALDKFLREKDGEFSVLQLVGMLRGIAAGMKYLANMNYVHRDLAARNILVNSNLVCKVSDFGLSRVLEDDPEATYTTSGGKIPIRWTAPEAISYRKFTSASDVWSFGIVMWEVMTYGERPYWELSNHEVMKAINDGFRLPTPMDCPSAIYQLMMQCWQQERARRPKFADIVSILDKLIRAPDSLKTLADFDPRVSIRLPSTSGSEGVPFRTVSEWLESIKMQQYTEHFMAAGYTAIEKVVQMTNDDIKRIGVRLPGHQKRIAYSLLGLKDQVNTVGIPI
Chain of LTK (P29376 whole entry): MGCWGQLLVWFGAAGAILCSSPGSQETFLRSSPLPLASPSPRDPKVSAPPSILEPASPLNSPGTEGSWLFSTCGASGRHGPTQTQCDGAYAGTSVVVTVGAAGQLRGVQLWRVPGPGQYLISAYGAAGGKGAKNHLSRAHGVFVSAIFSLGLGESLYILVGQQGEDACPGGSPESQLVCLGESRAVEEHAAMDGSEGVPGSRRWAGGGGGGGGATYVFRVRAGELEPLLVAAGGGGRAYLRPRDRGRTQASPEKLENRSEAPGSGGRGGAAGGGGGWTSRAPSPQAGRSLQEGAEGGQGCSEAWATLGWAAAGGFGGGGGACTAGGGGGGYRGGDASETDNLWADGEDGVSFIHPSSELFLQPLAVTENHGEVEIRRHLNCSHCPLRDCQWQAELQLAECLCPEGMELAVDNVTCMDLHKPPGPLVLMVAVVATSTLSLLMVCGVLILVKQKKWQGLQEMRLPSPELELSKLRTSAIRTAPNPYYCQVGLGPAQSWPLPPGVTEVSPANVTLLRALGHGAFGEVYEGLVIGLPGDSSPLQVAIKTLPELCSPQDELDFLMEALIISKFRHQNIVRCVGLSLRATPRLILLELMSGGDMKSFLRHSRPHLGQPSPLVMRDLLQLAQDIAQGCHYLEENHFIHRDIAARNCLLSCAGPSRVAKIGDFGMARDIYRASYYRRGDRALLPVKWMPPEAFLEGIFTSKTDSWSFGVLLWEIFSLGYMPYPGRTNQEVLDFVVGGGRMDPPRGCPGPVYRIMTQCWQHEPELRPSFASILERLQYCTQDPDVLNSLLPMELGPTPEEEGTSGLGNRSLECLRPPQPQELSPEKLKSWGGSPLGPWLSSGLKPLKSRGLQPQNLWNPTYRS
Chain of BLK (P51451 whole entry): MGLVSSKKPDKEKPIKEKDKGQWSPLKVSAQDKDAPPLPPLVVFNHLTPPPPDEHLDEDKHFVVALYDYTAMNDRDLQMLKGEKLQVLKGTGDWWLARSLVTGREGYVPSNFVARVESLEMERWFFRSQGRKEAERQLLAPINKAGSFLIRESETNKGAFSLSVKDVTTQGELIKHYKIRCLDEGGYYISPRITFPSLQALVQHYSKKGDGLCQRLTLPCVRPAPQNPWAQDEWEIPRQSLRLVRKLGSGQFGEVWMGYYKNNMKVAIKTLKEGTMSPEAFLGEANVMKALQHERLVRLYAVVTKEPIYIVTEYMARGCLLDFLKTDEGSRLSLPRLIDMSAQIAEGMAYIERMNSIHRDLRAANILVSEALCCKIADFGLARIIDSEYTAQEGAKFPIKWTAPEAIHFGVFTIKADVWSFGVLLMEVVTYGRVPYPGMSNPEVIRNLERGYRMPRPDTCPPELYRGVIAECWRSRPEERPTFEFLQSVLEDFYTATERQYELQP
Chain of TIE1 (P35590 whole entry): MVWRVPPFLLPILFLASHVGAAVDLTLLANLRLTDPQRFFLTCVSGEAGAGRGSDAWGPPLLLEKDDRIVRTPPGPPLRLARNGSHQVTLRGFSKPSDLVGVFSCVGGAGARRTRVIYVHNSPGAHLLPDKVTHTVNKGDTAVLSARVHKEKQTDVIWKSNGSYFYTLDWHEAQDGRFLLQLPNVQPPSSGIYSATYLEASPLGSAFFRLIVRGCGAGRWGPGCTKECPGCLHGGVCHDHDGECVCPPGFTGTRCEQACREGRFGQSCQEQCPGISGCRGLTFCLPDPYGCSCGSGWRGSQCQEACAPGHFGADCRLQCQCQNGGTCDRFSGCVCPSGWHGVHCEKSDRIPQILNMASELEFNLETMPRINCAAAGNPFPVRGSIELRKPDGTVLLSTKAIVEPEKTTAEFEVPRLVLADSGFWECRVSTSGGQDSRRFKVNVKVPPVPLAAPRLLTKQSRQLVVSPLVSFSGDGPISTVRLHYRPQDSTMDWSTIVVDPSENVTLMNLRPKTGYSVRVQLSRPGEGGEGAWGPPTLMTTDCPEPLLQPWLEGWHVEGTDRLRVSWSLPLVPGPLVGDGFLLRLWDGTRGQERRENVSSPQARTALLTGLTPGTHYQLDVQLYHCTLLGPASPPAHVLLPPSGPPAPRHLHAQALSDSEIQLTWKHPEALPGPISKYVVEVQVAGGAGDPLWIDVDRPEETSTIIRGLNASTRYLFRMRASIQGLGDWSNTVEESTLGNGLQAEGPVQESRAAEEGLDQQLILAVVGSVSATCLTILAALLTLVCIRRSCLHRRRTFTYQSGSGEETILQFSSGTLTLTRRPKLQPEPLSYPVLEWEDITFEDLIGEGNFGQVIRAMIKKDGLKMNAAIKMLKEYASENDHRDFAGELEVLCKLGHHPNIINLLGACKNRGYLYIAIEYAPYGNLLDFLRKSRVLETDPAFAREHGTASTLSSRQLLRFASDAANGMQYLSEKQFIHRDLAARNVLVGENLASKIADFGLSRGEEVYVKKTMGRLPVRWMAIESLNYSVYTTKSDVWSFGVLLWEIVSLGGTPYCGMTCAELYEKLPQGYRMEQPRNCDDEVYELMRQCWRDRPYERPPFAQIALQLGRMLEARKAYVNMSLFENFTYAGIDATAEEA
Chain of MAP3K1 (Q13233 whole entry): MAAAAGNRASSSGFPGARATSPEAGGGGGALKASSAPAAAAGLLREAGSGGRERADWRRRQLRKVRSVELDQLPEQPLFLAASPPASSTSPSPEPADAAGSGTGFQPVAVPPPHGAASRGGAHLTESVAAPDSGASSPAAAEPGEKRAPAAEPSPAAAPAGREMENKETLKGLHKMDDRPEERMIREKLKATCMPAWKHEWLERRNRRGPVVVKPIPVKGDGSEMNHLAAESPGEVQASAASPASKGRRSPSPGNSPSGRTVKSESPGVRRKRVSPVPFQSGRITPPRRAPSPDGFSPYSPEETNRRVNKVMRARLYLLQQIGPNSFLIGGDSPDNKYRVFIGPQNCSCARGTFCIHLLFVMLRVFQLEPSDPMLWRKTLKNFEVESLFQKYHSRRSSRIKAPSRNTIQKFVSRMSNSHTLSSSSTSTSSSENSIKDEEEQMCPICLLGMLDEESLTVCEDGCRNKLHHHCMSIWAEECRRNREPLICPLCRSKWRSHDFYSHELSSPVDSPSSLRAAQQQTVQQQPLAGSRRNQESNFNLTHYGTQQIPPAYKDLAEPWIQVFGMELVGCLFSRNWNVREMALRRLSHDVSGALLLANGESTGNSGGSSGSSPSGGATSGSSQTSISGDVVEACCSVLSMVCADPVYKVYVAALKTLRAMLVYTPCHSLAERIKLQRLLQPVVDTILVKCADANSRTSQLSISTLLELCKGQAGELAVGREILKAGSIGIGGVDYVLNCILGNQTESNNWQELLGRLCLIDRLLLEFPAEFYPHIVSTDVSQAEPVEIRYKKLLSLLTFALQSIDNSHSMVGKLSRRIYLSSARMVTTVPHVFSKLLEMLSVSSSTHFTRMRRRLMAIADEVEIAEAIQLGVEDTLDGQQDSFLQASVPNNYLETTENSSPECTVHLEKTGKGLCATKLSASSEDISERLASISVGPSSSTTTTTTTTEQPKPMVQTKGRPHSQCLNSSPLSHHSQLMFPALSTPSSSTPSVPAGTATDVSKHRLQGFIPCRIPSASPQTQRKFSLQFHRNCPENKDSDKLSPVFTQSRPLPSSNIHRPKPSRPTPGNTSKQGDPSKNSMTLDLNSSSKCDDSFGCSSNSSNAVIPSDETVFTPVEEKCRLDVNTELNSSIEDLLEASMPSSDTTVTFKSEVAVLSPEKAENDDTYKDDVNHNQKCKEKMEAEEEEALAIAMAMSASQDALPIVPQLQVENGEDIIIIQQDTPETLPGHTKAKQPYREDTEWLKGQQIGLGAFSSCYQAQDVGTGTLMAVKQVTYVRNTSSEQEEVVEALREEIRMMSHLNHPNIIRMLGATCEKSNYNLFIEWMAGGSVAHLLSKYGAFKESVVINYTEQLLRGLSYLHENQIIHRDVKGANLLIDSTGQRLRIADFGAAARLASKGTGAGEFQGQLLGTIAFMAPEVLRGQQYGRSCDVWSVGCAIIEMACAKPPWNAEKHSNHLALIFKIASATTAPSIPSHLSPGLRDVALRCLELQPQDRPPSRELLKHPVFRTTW

Which results are given for `CC#CC(=O)N1CCC[C@H]1c1nc(-c2ccc(C(=O)Nc3ccccn3)cc2)c2c(N)nccn12` [Acalabrutinib]?
remaining binding at 0.3 µM (BLK; [2]): 80%; remaining binding at 0.3 µM (BRSK1; [2]): 92%; remaining binding at 0.3 µM (EGFR(L858R); [2]): 93%; remaining binding at 0.3 µM (EPHA2; [2]): 94%; remaining binding at 0.3 µM [1, 2]: 64%; remaining binding at 0.3 µM (LTK; [2]): 100%; remaining binding at 0.3 µM (MAP3K1; [2]): 96%; remaining binding at 0.3 µM (MLCK; [2]): 94%; remaining binding at 0.3 µM (NEK4; [2]): 88%; remaining binding at 0.3 µM (PLK3; [2]): 91%; remaining binding at 0.3 µM (STK33; [2]): 90%; remaining binding at 0.3 µM (TIE1; [2]): 86%

With `C=CC(=O)N1CCC[C@@H](n2nc(-c3ccc(Oc4ccccc4)cc3)c3c(N)ncnc32)C1` [Ibrutinib] as the compound, how does the remaining binding at 0.3 µM (BLK; [3]) read?
Its remaining binding at 0.3 µM is 0.5%.

And the remaining binding at 0.3 µM (BRSK1; [3])?
Its remaining binding at 0.3 µM is 72%.

And the remaining binding at 0.3 µM (EGFR(L858R); [3])?
Its remaining binding at 0.3 µM is 5.6%.

And the remaining binding at 0.3 µM (LTK; [3])?
The remaining binding at 0.3 µM was 78%.

What about the remaining binding at 0.3 µM (MAP3K1; [3]) of the same compound?
The remaining binding at 0.3 µM was 86%.

And the remaining binding at 0.3 µM (MLCK; [3])?
Its remaining binding at 0.3 µM is 79%.

What about the remaining binding at 0.3 µM (PLK3; [3]) of the same compound?
The remaining binding at 0.3 µM was 94%.

What about the remaining binding at 0.3 µM (STK33; [3]) of the same compound?
Its remaining binding at 0.3 µM is 86%.

And the remaining binding at 0.3 µM (TIE1; [3])?
The remaining binding at 0.3 µM was 75%.

Which remaining binding at 0.3 µM (BLK; [4]) does the source give for `CC#CC(=O)N1CC[C@@H](n2c(=O)n(-c3ccc(Oc4ccccc4)cc3)c3c(N)ncnc32)C1` [Tirabrutinib] here?
The remaining binding at 0.3 µM was 39%.

What about the remaining binding at 0.3 µM (EGFR(L858R); [4]) of the same compound?
Its remaining binding at 0.3 µM is 97%.

What about the remaining binding at 0.3 µM (EPHA2; [4]) of the same compound?
Its remaining binding at 0.3 µM is 93%.

What about the remaining binding at 0.3 µM [1, 4] of the same compound?
Its remaining binding at 0.3 µM is 88%.

And the remaining binding at 0.3 µM (LTK; [4])?
The remaining binding at 0.3 µM was 100%.

What about the remaining binding at 0.3 µM (NEK4; [4]) of the same compound?
The remaining binding at 0.3 µM was 99%.

And the remaining binding at 0.3 µM (TIE1; [4])?
Its remaining binding at 0.3 µM is 90%.

What does the source list for `C=CC(=O)N1CCC([C@@H]2CCNc3c(C(N)=O)c(-c4ccc(Oc5ccccc5)cc4)nn32)CC1` [Zanubrutinib]?
remaining binding at 0.3 µM (BRSK1; [5]): 92%; remaining binding at 0.3 µM (EPHA2; [5]): 67%; remaining binding at 0.3 µM [1, 5]: 87%; remaining binding at 0.3 µM (LTK; [5]): 92%; remaining binding at 0.3 µM (MAP3K1; [5]): 84%; remaining binding at 0.3 µM (MLCK; [5]): 84%; remaining binding at 0.3 µM (NEK4; [5]): 100%; remaining binding at 0.3 µM (PLK3; [5]): 94%; remaining binding at 0.3 µM (STK33; [5]): 93%; remaining binding at 0.3 µM (TIE1; [5]): 98%
